Assay results: PubChem BioAssay AID1259407 (Chemical Carcinogenesis Research Information System (CCRIS), 2018)
Calls of active or inactive are those of the source. How the calls were made is not given here.

Tested on: CCRIS mutagenicity, Ames/micronucleus/aberration tests
Test: CCRIS mutagenicity studies
[1] = Test System: AMES SALMONELLA TYPHIMURIUM, Strain/Indicator: TA98, Metabolic Activation: NONE, Method: PREINCUBATION
[2] = Test System: AMES SALMONELLA TYPHIMURIUM, Strain/Indicator: TA100, Metabolic Activation: NONE, Method: PREINCUBATION
[3] = Test System: AMES SALMONELLA TYPHIMURIUM, Strain/Indicator: TA1535, Metabolic Activation: NONE, Method: PREINCUBATION
[4] = Test System: AMES SALMONELLA TYPHIMURIUM, Strain/Indicator: TA1537, Metabolic Activation: NONE, Method: PREINCUBATION
[5] = Test System: AMES SALMONELLA TYPHIMURIUM, Strain/Indicator: TA98, Metabolic Activation: NONE, Method: STANDARD PLATE

In the case of COC1=CC(=O)C[C@@H](C)[C@]12Oc1c(Cl)c(OC)cc(OC)c1C2=O, the mutagenic call (End Point: IN VITRO CHROMOSOMAL ABERRATIONS, Test System: PERIPHERAL HUMAN BLOOD LYMPHOCYTES, Metabolic Activation: NONE) is reported as “active; positive (ploidy changes)”, the mutagenic call (End Point: IN VITRO MICRONUCLEUS, Test System: CHO CELLS, Metabolic Activation: RAT, LIVER, S-9, AROCLOR 1254) is reported as “active; positive” and the mutagenic call (End Point: IN VITRO MICRONUCLEUS, Test System: V79 CELLS, Metabolic Activation: NONE) is reported as “active; positive”. For the same compound, the mutagenic call (Test System: AMES SALMONELLA TYPHIMURIUM, Strain/Indicator: TA97, Metabolic Activation: HAMSTER, LIVER, S-9, AROCLOR 1254 (10 OR 30%), Method: PREINCUBATION) was “inactive; negative”, the mutagenic call (Test System: AMES SALMONELLA TYPHIMURIUM, Strain/Indicator: TA97, Metabolic Activation: NONE, Method: PREINCUBATION) was “inactive; negative” and the mutagenic call (Test System: AMES SALMONELLA TYPHIMURIUM, Strain/Indicator: TA97, Metabolic Activation: RAT, LIVER, S-9, AROCLOR 1254 (10 OR 30%), Method: PREINCUBATION) was “inactive; negative”. The mutagenic call (Test System: AMES SALMONELLA TYPHIMURIUM, Strain/Indicator: TA98, Metabolic Activation: HAMSTER, LIVER, S-9, AROCLOR 1254 (10 OR 30%), Method: PREINCUBATION) was “inactive; negative”, the mutagenic call [1] was “inactive; negative” and the mutagenic call (Test System: AMES SALMONELLA TYPHIMURIUM, Strain/Indicator: TA98, Metabolic Activation: RAT, LIVER, S-9, AROCLOR 1254 (10 OR 30%), Method: PREINCUBATION) was “inactive; negative”. For the same compound, the mutagenic call (Test System: AMES SALMONELLA TYPHIMURIUM, Strain/Indicator: TA100, Metabolic Activation: HAMSTER, LIVER, S-9, AROCLOR 1254 (10 OR 30%), Method: PREINCUBATION) was “inactive; negative”, the mutagenic call [2] was “inactive; negative” and the mutagenic call (Test System: AMES SALMONELLA TYPHIMURIUM, Strain/Indicator: TA100, Metabolic Activation: RAT, LIVER, S-9, AROCLOR 1254 (10 OR 30%), Method: PREINCUBATION) was “inactive; negative”. For the same compound, the mutagenic call (Test System: AMES SALMONELLA TYPHIMURIUM, Strain/Indicator: TA100, Metabolic Activation: RAT, LIVER, S-9, PHENOBARBITAL, Method: PREINCUBATION) was “inactive; negative”, the mutagenic call (Test System: AMES SALMONELLA TYPHIMURIUM, Strain/Indicator: TA1535, Metabolic Activation: HAMSTER, LIVER, S-9, AROCLOR 1254 (10 OR 30%), Method: PREINCUBATION) was “inactive; negative” and the mutagenic call [3] was “inactive; negative”. The mutagenic call (Test System: AMES SALMONELLA TYPHIMURIUM, Strain/Indicator: TA1535, Metabolic Activation: RAT, LIVER, S-9, AROCLOR 1254 (10 OR 30%), Method: PREINCUBATION) was “inactive; negative”, the mutagenic call (Test System: AMES SALMONELLA TYPHIMURIUM, Strain/Indicator: TA1537, Metabolic Activation: HAMSTER, LIVER, S-9, AROCLOR 1254 (30%), Method: PREINCUBATION) was “inactive; negative” and the mutagenic call [4] was “inactive; negative”. For the same compound, the mutagenic call (Test System: AMES SALMONELLA TYPHIMURIUM, Strain/Indicator: TA1537, Metabolic Activation: RAT, LIVER, S-9, AROCLOR 1254 (30%), Method: PREINCUBATION) was “inactive; negative”, the mutagenic call (Test System: MOUSE LYMPHOMA, Strain/Indicator: L5178Y (TK+/TK-), Metabolic Activation: NONE, Method: MICROWELL) was “active; positive” and the mutagenic call (Test System: MOUSE LYMPHOMA, Strain/Indicator: L5178Y (TK+/TK-), Metabolic Activation: S-9, Method: MICROWELL) was “active; positive”.
CC(C)(C)c1ccc(-c2ccc(N=O)cc2)cc1 was tested, and the mutagenic call [5] was “active; positive”, the mutagenic call (Test System: AMES SALMONELLA TYPHIMURIUM, Strain/Indicator: TA98, Metabolic Activation: S-9, Method: STANDARD PLATE) was “active; positive” and the mutagenic call (Test System: AMES SALMONELLA TYPHIMURIUM, Strain/Indicator: TA100, Metabolic Activation: NONE, Method: STANDARD PLATE) was “active; positive”. The mutagenic call (Test System: AMES SALMONELLA TYPHIMURIUM, Strain/Indicator: TA100, Metabolic Activation: S-9, Method: STANDARD PLATE) was “active; positive”.
With c1ccc2c(c1)ccc1c3ccccc3sc21 the mutagenic call (Test System: AMES SALMONELLA TYPHIMURIUM, Strain/Indicator: TA100, Metabolic Activation: RAT, LIVER, S-9, AROCLOR 1254, Method: PREINCUBATION) was “active; positive”.
CC(=O)OCCN(CCC#N)c1ccc(N=Nc2ccc([N+](=O)[O-])cc2)cc1 was tested, and the mutagenic call (End Point: IN VITRO CHROMOSOMAL ABERRATIONS, Test System: CHL CELLS, Metabolic Activation: RAT, LIVER, S-9, SODIUM PHENOBARBITAL AND 5,6-BENZOFLAVONE) was “inactive; negative”.
With c1ccc2c(c1)-c1ccccc1C1NC21 (configuration not stated) the mutagenic call [5] was “active; positive”, the mutagenic call (Test System: AMES SALMONELLA TYPHIMURIUM, Strain/Indicator: TA1537, Metabolic Activation: NONE, Method: STANDARD PLATE) was “active; positive” and the mutagenic call (Test System: CHINESE HAMSTER V-79, Strain/Indicator: V-79/6-THIOGUANINE, Metabolic Activation: NONE, Method: STANDARD PLATE) was “active; positive”.
In the case of CCCCCCCC/C=C\CCCCCCCC(N)=O, the mutagenic call (Test System: Ames Salmonella typhimurium, Strain/Indicator: TA98, Metabolic Activation: None, Method: Preincubation) is reported as “inactive; negative. precipitation at 3 highest doses”, the mutagenic call (Test System: Ames Salmonella typhimurium, Strain/Indicator: TA98, Metabolic Activation: Rat, Liver, S9, Phenobarbital and 5,6-benzoflavone, Method: Preincubation) is reported as “inactive; negative. precipitation at 3 highest doses” and the mutagenic call (Test System: Ames Salmonella typhimurium, Strain/Indicator: TA100, Metabolic Activation: None, Method: Preincubation) is reported as “inactive; negative. precipitation at 3 highest doses”. The mutagenic call (Test System: Ames Salmonella typhimurium, Strain/Indicator: TA100, Metabolic Activation: Rat, Liver, S9, Phenobarbital and 5,6-benzoflavone, Method: Preincubation) was “inactive; negative. precipitation at 3 highest doses”, the mutagenic call (Test System: Ames Salmonella typhimurium, Strain/Indicator: TA1535, Metabolic Activation: None, Method: Preincubation) was “inactive; negative. precipitation at 3 highest doses” and the mutagenic call (Test System: Ames Salmonella typhimurium, Strain/Indicator: TA1535, Metabolic Activation: Rat, Liver, S9, Phenobarbital and 5,6-benzoflavone, Method: Preincubation) was “inactive; negative. precipitation at 3 highest doses”. For the same compound, the mutagenic call (Test System: Ames Salmonella typhimurium, Strain/Indicator: TA1537, Metabolic Activation: None, Method: Preincubation) was “inactive; negative. precipitation at 3 highest doses”, the mutagenic call (Test System: Ames Salmonella typhimurium, Strain/Indicator: TA1537, Metabolic Activation: Rat, Liver, S9, Phenobarbital and 5,6-benzoflavone, Method: Preincubation) was “inactive; negative. precipitation at 3 highest doses” and the mutagenic call (Test System: E. coli, Strain/Indicator: WP2uvrA/pKM101, Metabolic Activation: None, Method: Preincubation) was “inactive; negative. precipitation at 3 highest doses”. The mutagenic call (Test System: E. coli, Strain/Indicator: WP2uvrA/pKM101, Metabolic Activation: Rat, Liver, S9, Phenobarbital and 5,6-benzoflavone, Method: Preincubation) was “inactive; negative. precipitation at 3 highest doses”.
For Nc1ccn([C@@H]2O[C@H](CO)[C@@H](O)[C@@H]2O)c(=O)n1, the mutagenic call (Test System: AMES SALMONELLA TYPHIMURIUM, Strain/Indicator: TA98, Metabolic Activation: HAMSTER, LIVER, S-9, AROCLOR 1254 (10%), Method: PREINCUBATION) was “inactive; negative”, the mutagenic call [1] was “inactive; negative” and the mutagenic call (Test System: AMES SALMONELLA TYPHIMURIUM, Strain/Indicator: TA98, Metabolic Activation: RAT, LIVER, S-9, AROCLOR 1254 (10%), Method: PREINCUBATION) was “inactive; negative”. The mutagenic call (Test System: AMES SALMONELLA TYPHIMURIUM, Strain/Indicator: TA100, Metabolic Activation: HAMSTER, LIVER, S-9, AROCLOR 1254 (10%), Method: PREINCUBATION) was “inactive; negative”, the mutagenic call [2] was “inactive; negative” and the mutagenic call (Test System: AMES SALMONELLA TYPHIMURIUM, Strain/Indicator: TA100, Metabolic Activation: RAT, LIVER, S-9, AROCLOR 1254 (10%), Method: PREINCUBATION) was “inactive; negative”. The mutagenic call (Test System: AMES SALMONELLA TYPHIMURIUM, Strain/Indicator: TA1535, Metabolic Activation: HAMSTER, LIVER, S-9, AROCLOR 1254 (10%), Method: PREINCUBATION) was “inactive; negative”, the mutagenic call [3] was “inactive; negative” and the mutagenic call (Test System: AMES SALMONELLA TYPHIMURIUM, Strain/Indicator: TA1535, Metabolic Activation: RAT, LIVER, S-9, AROCLOR 1254 (10%), Method: PREINCUBATION) was “inactive; negative”. The mutagenic call (Test System: AMES SALMONELLA TYPHIMURIUM, Strain/Indicator: TA1537, Metabolic Activation: HAMSTER, LIVER, S-9, AROCLOR 1254 (10%), Method: PREINCUBATION) was “inactive; negative”, the mutagenic call [4] was “inactive; negative” and the mutagenic call (Test System: AMES SALMONELLA TYPHIMURIUM, Strain/Indicator: TA1537, Metabolic Activation: RAT, LIVER, S-9, AROCLOR 1254 (10%), Method: PREINCUBATION) was “inactive; negative”.
